This passage reports inhibition results from ChEMBL document CHEMBL1133307, “Synthesis of 5-substituted analogues of huperzine A” (Bioorg Med Chem Lett, 2000).

For orientation: inhibition means the percentage by which the read-out fell short of the control.

Test [1] deals with Acetylcholinesterase (Homo sapiens) (UniProt P22303). Kind of test: Percent inhibition against acetylcholinesterase (ACHE) at a concentration of 47 uM.
The target is the same in test [2]. The test can be described thus: Percent inhibition against acetylcholinesterase (ACHE) at a concentration of 35 uM.
Test [3] has the same target. The test can be described thus: Percent inhibition against acetylcholinesterase (ACHE) at a concentration of 88 uM.

Acetylcholinesterase (Homo sapiens), sequence (P22303 whole entry): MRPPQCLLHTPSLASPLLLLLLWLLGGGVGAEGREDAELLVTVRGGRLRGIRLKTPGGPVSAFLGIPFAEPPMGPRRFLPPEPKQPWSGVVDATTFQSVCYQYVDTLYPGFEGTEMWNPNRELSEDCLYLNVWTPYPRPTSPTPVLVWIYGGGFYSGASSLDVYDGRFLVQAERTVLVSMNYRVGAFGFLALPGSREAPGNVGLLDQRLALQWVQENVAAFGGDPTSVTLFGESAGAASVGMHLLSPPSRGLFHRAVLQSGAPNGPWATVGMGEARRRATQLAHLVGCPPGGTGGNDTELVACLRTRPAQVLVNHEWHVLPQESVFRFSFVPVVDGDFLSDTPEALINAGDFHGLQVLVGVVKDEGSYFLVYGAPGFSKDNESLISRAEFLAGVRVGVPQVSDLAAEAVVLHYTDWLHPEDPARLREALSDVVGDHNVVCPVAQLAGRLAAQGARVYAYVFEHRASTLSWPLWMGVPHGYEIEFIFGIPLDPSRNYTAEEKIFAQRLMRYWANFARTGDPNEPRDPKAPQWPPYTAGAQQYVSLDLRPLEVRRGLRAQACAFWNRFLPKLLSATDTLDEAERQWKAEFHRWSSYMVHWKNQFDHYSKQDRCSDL

In test [1], `C/C=C1\C2C=C(C)CC1(F)c1ccc(O)nc1C2` (stereo not drawn) gave an inhibition of 50%. Consider `C/C=C1\C2C=C(C)CC1(O)c1ccc(O)nc1C2` (stereo not drawn), for which the inhibition in test [2] stood at 50%. In the case of `C/C=C1\C2C=C(C)CC1(OC(C)=O)c1ccc(O)nc1C2` (stereo not drawn), the inhibition in test [3] is 6.36%.
